Assay results reported in ChEMBL document CHEMBL4382243, “The synthesis of 4-arylamido-2-arylaminoprimidines as potent EGFR T790M/L858R inhibitors for NSCLC” (Bioorg Med Chem, 2018).
Activity calls are given as the source filed them. The calls are words filed in the database; no cut-off is given here.

What was measured:
A549 = assay: cells; type: functional, cell-based; details: Homo sapiens, A549, 72 h
NCI-H1975 [1] = assay: Antiproliferative activity against human NCI-H1975 cells harboring EGFR T790M/L858R double mutant assessed as cell viability at 0.1 uM after 72 hrs by MTT assay (reference value: 98.3%); type: functional; details: for viability at 0.1 µM: Homo sapiens, NCI-H1975, 72 h, read-out: Activity
A-431 = assay: cells; type: ADME, cell-based; details: Homo sapiens, A-431, 72 h;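 further: growth inhibition of A-431 cells expressing wild-type EGFR, read out by MTT assay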
NCI-H1975 [2] = assay: Antiproliferative activity against human NCI-H1975 cells harboring EGFR T790M/L858R double mutant assessed as cell viability at 0.1 uM after 24 hrs by MTT assay (reference value: 98.3%); type: functional; details: for viability at 0.1 µM: Homo sapiens, NCI-H1975, 24 h, read-out: Activity
NCI-H1975 [3] = assay: Antiproliferative activity against human NCI-H1975 cells harboring EGFR T790M/L858R double mutant assessed as cell viability at 10 uM after 24 hrs by MTT assay (reference value: 98.3%); type: functional; details: for viability at 10 µM: Homo sapiens, NCI-H1975, 24 h, read-out: Activity
NCI-H1975 [4] = assay: Antiproliferative activity against human NCI-H1975 cells harboring EGFR T790M/L858R double mutant assessed as cell viability at 1 uM after 48 hrs by MTT assay (reference value: 98.3%); type: functional; details: for viability at 1 µM: Homo sapiens, NCI-H1975, 48 h, read-out: Activity
NCI-H1975 [5] = assay: Antiproliferative activity against human NCI-H1975 cells harboring EGFR T790M/L858R double mutant assessed as cell viability at 10 uM after 48 hrs by MTT assay (reference value: 98.3%); type: functional; details: for viability at 10 µM: Homo sapiens, NCI-H1975, 48 h, read-out: Activity
NCI-H1975 [6] = assay: Antiproliferative activity against human NCI-H1975 cells harboring EGFR T790M/L858R double mutant assessed as cell viability at 1 uM after 72 hrs by MTT assay (reference value: 98.3%); type: functional; details: for viability at 1 µM: Homo sapiens, NCI-H1975, 72 h, read-out: Activity
cells = type: ADME, cell-based; details: Homo sapiens, NHBE, 72 h
NCI-H1975 [7] = assay: Antiproliferative activity against human NCI-H1975 cells harboring EGFR T790M/L858R double mutant assessed as cell viability at 0.1 uM after 48 hrs by MTT assay (reference value: 98.3%); type: functional; details: for viability at 0.1 µM: Homo sapiens, NCI-H1975, 48 h, read-out: Activity
NCI-H1975 [8] = assay: Antiproliferative activity against human NCI-H1975 cells harboring EGFR T790M/L858R double mutant after 72 hrs by MTT assay; type: functional, cell-based; details: NCI-H1975, 72 h
ASPC1 = assay: cells; type: functional, cell-based; details: Homo sapiens, ASPC1, 72 h;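 further: growth inhibition of the cells quantified with an MTT readout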
NCI-H1975 [9] = assay: Antiproliferative activity against human NCI-H1975 cells harboring EGFR T790M/L858R double mutant assessed as cell viability at 1 uM after 24 hrs by MTT assay (reference value: 98.3%); type: functional; details: for viability at 1 µM: Homo sapiens, NCI-H1975, 24 h, read-out: Activity
NCI-H1975 [10] = assay: Antiproliferative activity against human NCI-H1975 cells harboring EGFR T790M/L858R double mutant assessed as cell viability at 10 uM after 72 hrs by MTT assay (reference value: 98.3%); type: functional; details: for viability at 10 µM: Homo sapiens, NCI-H1975, 72 h, read-out: Activity
[11] = biological target: Epidermal growth factor receptor (Homo sapiens, UniProt P00533, L858R/T790M); type: cell-based, Sf9
Epidermal growth factor receptor (Homo sapiens, UniProt P00533, L858R/T790M), sequence (P00533 25-1210 T790M/L858R limits assumed): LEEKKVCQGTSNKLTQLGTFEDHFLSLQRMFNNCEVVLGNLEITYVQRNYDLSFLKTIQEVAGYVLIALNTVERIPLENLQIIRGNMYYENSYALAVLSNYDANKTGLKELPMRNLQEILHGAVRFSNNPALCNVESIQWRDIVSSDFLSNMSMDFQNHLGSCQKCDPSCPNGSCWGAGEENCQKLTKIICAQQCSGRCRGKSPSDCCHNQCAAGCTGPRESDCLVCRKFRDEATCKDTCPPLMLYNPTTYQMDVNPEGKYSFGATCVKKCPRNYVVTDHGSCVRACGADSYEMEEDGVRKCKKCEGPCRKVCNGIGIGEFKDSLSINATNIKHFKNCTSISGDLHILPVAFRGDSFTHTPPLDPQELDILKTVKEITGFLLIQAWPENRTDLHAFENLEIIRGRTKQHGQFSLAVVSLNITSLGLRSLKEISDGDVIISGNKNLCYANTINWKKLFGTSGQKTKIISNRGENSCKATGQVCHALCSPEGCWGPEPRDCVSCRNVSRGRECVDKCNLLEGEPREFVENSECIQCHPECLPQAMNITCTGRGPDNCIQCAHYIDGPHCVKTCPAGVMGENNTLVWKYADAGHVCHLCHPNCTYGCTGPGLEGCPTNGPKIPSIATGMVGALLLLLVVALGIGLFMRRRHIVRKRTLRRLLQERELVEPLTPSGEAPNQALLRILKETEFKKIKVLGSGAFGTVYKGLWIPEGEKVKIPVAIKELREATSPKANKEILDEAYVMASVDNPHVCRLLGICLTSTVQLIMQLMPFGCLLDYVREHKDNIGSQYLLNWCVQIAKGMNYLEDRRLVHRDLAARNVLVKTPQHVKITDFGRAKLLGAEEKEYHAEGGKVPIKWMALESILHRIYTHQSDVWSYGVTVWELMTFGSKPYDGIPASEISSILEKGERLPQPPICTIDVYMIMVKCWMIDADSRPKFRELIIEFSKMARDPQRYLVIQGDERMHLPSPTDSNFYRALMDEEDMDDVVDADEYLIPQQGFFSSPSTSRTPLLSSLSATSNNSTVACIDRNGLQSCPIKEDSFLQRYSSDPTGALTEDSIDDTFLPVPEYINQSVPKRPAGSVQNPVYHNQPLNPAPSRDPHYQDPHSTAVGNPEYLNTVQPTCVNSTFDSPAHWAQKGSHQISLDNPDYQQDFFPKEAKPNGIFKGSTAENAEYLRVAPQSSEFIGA

NCI-H23 = assay: Antiproliferative activity against human NCI-H23 cells after 72 hrs by MTT assay; type: functional, cell-based; details: NCI-H23, 72 h
[12] = biological target: Epidermal growth factor receptor (Homo sapiens, UniProt P00533); type: ADME, cell-based, Sf9
Epidermal growth factor receptor (Homo sapiens, UniProt P00533), sequence (P00533 whole entry): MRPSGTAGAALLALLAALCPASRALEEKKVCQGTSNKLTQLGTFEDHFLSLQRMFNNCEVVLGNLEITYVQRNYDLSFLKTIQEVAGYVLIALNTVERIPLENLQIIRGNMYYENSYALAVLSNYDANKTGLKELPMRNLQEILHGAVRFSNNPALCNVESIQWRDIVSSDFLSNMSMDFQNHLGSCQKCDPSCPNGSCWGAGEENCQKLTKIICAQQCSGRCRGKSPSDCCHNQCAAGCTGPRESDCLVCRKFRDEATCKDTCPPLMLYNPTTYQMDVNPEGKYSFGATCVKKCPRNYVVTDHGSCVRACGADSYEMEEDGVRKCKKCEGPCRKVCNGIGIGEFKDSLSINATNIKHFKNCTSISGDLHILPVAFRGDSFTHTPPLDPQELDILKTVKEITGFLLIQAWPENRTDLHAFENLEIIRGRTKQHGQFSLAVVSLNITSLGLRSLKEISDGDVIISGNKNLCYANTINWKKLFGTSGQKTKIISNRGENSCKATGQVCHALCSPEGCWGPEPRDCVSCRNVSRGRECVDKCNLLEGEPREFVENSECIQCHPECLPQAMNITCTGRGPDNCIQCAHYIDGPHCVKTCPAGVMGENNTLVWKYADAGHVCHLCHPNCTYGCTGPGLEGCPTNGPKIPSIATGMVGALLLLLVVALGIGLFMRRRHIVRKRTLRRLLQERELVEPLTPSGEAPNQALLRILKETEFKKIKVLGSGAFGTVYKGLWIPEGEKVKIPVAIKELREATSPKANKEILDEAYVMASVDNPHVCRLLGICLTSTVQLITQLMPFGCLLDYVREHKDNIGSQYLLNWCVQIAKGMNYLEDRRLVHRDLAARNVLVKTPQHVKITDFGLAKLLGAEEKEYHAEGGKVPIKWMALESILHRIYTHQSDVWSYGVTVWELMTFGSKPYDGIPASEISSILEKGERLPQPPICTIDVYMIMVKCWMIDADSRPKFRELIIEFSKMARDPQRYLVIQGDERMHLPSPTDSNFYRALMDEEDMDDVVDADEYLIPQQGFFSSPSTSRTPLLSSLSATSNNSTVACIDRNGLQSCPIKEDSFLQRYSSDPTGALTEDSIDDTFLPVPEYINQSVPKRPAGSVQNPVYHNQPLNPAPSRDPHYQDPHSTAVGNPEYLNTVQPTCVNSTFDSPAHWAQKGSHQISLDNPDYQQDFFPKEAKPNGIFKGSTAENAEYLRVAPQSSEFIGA

NCI-H1975 [13] = assay: Induction of apoptosis in human NCI-H1975 cells harboring EGFR T790M/L858R double mutant assessed as apoptotic body formation at 1 to 20 uM after 72 hrs by DAPI staining based fluorescent microscopic analysis; type: functional, cell-based
NCI-H1975 [14] = assay: Antimigratory activity against human NCI-H1975 cells at 5 to 10 uM up to 48 hrs by wound healing assay; type: functional, cell-based
NCI-H1975 [15] = assay: Antiproliferative activity against human NCI-H1975 cells harboring EGFR T790M/L858R double mutant at 1 to 20 uM after 72 hrs by acridine orange/ethidium bromide staining based fluorescent microscopic analysis; type: functional, cell-based
NCI-H1975 [16] = assay: Induction of apoptosis in human NCI-H1975 cells harboring EGFR T790M/L858R double mutant assessed as membrane blebbing at 1 to 20 uM after 72 hrs by DAPI staining based fluorescent microscopic analysis; type: functional, cell-based
NCI-H1975 [17] = assay: Induction of apoptosis in human NCI-H1975 cells harboring EGFR T790M/L858R double mutant assessed as nuclear condensation at 1 to 20 uM after 72 hrs by DAPI staining based fluorescent microscopic analysis; type: functional, cell-based

Row | Structure (SMILES) | IC50 (A549) [µM] | IC50 (A-431) [µM] | IC50 (cells) [µM] | IC50 (NCI-H1975 [8]) [µM] | IC50 (ASPC1) [µM] | IC50 [11] [µM] | IC50 (NCI-H23) [µM] | IC50 [12] [µM] | other results
1 | C=CC(=O)Nc1cc(Nc2nccc(-c3cn(C)c4ccccc34)n2)c(OC)cc1N(C)CCN(C)C [OSIMERTINIB] | 3.24 | […] | > 40 | […] | 3.98 | – | – | – | Activity (NCI-H1975 [1]): 77.2%; Activity (NCI-H1975 [2]): 87.1%; Activity (NCI-H1975 [3]): 3.68%; Activity (NCI-H1975 [4]): 59%; Activity (NCI-H1975 [5]): 1.71%; Activity (NCI-H1975 [6]): 33.5%; Activity (NCI-H1975 [7]): 83.6%; Activity (NCI-H1975 [9]): 78.6%; Activity (NCI-H1975 [10]): 1.42%
2 | C=CC(=O)Nc1cc(Nc2nccc(NC(=O)c3cccc4ccccc34)n2)c(OC)cc1N1CCN(C)CC1 | 6.77 | 7.75 | 18.9 | 1.09 | 6.6 | 0.0333 | 10.6 | 0.134 | –
3 | C=CC(=O)Nc1cc(Nc2nccc(NC(=O)c3ccccc3)n2)c(OC)cc1N(C)C | – | > 20 | – | > 20 | – | – | – | – | –
4 | C=CC(=O)Nc1cc(Nc2nccc(NC(=O)c3ccc(C(F)(F)F)cc3)n2)c(OC)cc1N1CCC(C(N)=O)CC1 | – | > 20 | – | 15.7 | – | 0.0653 | – | 0.127 | –
5 | C=CC(=O)Nc1cc(Nc2nccc(NC(=O)c3ccc(OC)c(OC)c3)n2)c(OC)cc1N(C)C | – | 18.2 | – | 2.15 | – | 0.0402 | – | 0.149 | –
6 | C=CC(=O)Nc1cc(Nc2nccc(NC(=O)c3ccc(OC)c(OC)c3)n2)c(OC)cc1N1CCN(C)CC1 | 6.82 | 11.7 | 27 | 1.66 | > 10 | 0.0126 | > 16 | 0.157 | viability at 0.1 µM (NCI-H1975 [1]): 90.2%; Activity (NCI-H1975 [13]): Active; Activity (NCI-H1975 [14]): Active; viability at 0.1 µM (NCI-H1975 [2]): 93.8%; Activity (NCI-H1975 [15]): Active; viability at 10 µM (NCI-H1975 [3]): 41.4%; Activity (NCI-H1975 [16]): Active; viability at 1 µM (NCI-H1975 [4]): 74.8%; viability at 10 µM (NCI-H1975 [5]): 11.8%; viability at 1 µM (NCI-H1975 [6]): 52.8%; viability at 0.1 µM (NCI-H1975 [7]): 91.6%; Activity (NCI-H1975 [17]): Active; viability at 1 µM (NCI-H1975 [9]): 85.4%; viability at 10 µM (NCI-H1975 [10]): 5.8%
7 | C=CC(=O)Nc1cc(Nc2nccc(NC(=O)c3cccc(OC)c3)n2)c(OC)cc1N1CCC(C(N)=O)CC1 | – | 13.1 | – | 11.5 | – | 0.0326 | – | 0.0505 | –
8 | C=CC(=O)Nc1cc(Nc2nccc(NC(=O)c3ccccc3)n2)c(OC)cc1N(C)CCN(C)C | 1.74 | 1.06 | 15.1 | 1.34 | 3.58 | 0.143 | > 16 | 0.318 | –
9 | C=CC(=O)Nc1cc(Nc2nccc(NC(=O)c3cccc(OC)c3)n2)c(OC)cc1N(C)CCN(C)C | 3 | 4.16 | 12.3 | 1.16 | 3.4 | 0.059 | 11.8 | 0.153 | –
10 | C=CC(=O)Nc1cc(Nc2nccc(NC(=O)c3ccc(OC)c(OC)c3)n2)c(OC)cc1N(C)CCN(C)C | 3.95 | 6.55 | 12.7 | 2.65 | 3.32 | 0.123 | 15.5 | 0.187 | –
11 | C=CC(=O)Nc1cc(Nc2nccc(NC(=O)c3ccc(C(F)(F)F)cc3)n2)c(OC)cc1N1CCN(C)CC1 | 7.89 | 9.2 | 19.4 | 3.42 | > 10 | 0.0279 | 9.2 | 0.152 | –
12 | C=CC(=O)Nc1cc(Nc2nccc(NC(=O)c3ccccc3)n2)c(OC)cc1N1CCN(C)CC1 | 5.97 | 3.94 | 23.9 | 1.42 | > 10 | 0.121 | > 16 | 0.156 | –
13 | COc1cc2ncnc(Nc3ccc(F)c(Cl)c3)c2cc1OCCCN1CCOCC1 [GEFITINIB] | – | – | – | – | – | – | – | – | viability at 0.1 µM (NCI-H1975 [1]): 89.9%; viability at 0.1 µM (NCI-H1975 [2]): 97.6%; viability at 10 µM (NCI-H1975 [3]): 48.7%; viability at 1 µM (NCI-H1975 [4]): 84.3%; viability at 10 µM (NCI-H1975 [5]): 32.7%; viability at 1 µM (NCI-H1975 [6]): 63.2%; viability at 0.1 µM (NCI-H1975 [7]): 93.5%; viability at 1 µM (NCI-H1975 [9]): 90.6%; viability at 10 µM (NCI-H1975 [10]): 18.7%
14 | C=CC(=O)Nc1cc(Nc2nccc(NC(=O)c3cccc(OC)c3)n2)c(OC)cc1N1CCN(C)CC1 | 6.45 | 1.59 | 2.5 | 4.23 | > 10 | 0.055 | 15.9 | 0.147 | –
15 | C=CC(=O)Nc1cc(Nc2nccc(NC(=O)c3ccc(OC)c(OC)c3)n2)c(OC)cc1N1CCC(C(N)=O)CC1 | 4.47 | 9.45 | > 40 | 1.46 | > 10 | 0.0547 | > 16 | 0.128 | –
16 | C=CC(=O)Nc1cc(Nc2nccc(NC(=O)c3ccc(C(F)(F)F)cc3)n2)c(OC)cc1N(C)CCN(C)C | 9.88 | 7.24 | 12.9 | 3.26 | 8.03 | 0.0465 | 7.98 | 0.109 | –
17 | C=CC(=O)Nc1cc(Nc2nccc(NC(=O)c3ccccc3)n2)c(OC)cc1N1CCC(C(N)=O)CC1 | – | 15.5 | – | > 20 | – | 0.000587 | – | 0.181 | –
